Data: US20220008391A1, “NOVEL COMPOUNDS FOR CONTROLLING ARTHROPODS” (Bayer Animal Health GmbH, priority 2018, published 2022)
≈ marks a conversion by molar mass, not a printed value. Values belong to the compound of their own block, whether it stands above or below them.

Experiments:
[1] = Measurement of solubility in buffer at pH 6.5; assay type: physicochemical; details: aqueous buffer, kinetic from dmso stock; PBS buffer pH 6.5, shaken 24h at rt, LC-MSMS; read-out: Solubility of example compounds at pH 6.5
Protocol: Measurement of Solubility in Buffer at pH 6.5 2-4 mg of the test compound are dissolved in DMSO to reach a concentration of 50 g/L (solution A). To 10 μl of this solution 960 μl PBS buffer pH 6.5 are added (final concentration: 515 μg/1); the mixture is shaken for 24h at rt in a 96 well plate. An aliquot is centrifuged at 42000 rpm für 30 min. The supernatant is diluted with acetonitrile/water (8:2) 1:10 and 1:1000 resp. This diluted samples are analyzed by LC-MSMS. Calibration: 10 μl of solution A are diluted with 823 μl DMSO (final concentration: 600 μg/ml), which is further diluted with acetonitrile/water 8:2 by a factor of 100 (provides solution B). The calibration curve is obtained from solution B by further diluting with acetonitrile/water 8:2 with target concentrations of 1.2-12-60-600 ng/ml and injecting these four solutions for MS measurement. PBS-Puffer: 6.18 g sodium chloride and 3.96 g sodium dihydrogen phosphate are dissolved in 1 L aqua dist., the pH is adjusted to 6.5 with 1N sodium hydroxide. The following conditions were used for quantification: Autosampler without auto inject ahead setting, column: Waters OASIS HLB, 2,1×20 mm, 25μ, column temperature: 30° C., flow rate: 2.5 mL/min, injected volume: 2 μl, Splitter (before MS) 1:20.

[2] = Degradation of prodrugs and release of parent compound in dog plasma; assay type: in vitro ADME
Protocol: Measurement of Release of Parent Compound in Dog Plasma 1 mg of the test compound was dissolved in 0.5 mL acetonitrile/dimethylsulfoxide 9:1. For complete dissolution the HPLC vial was shaken and treated with ultrasound. 20 μl of this solution were added to 1 mL of dog plasma (Beagle) under vortexing at a temperature of 37° C. Aliquots (100 μL each) were taken at 0.17, 0.5, 1, 1.5, 2 and 4 hours. Each aliquot was transferred to a vial containing 300 μL of acetonitrile/citric acid buffer pH 3 80:20. These solutions were centrifuged at 5000 rpm for 10 minutes. The supernatant was analysed by HPLC (Method 8) to determine the amount of the test compound. In addition, the reaction mixture was analysed by method 9 (HPLC-MS) at the final timepoint. Both decrease of the prodrug concentration and increase of parent compound concentration were monitored. All data is given as percent area of the prodrug at t0.

Ctenocephalides felis = assay: Antiparasitic activity after administration to rats, fleas; assay type: in vivo; details: for flea efficacy on rats compared with the parent drug also injected subcutaneously: SC; for Efficacy SD42: sc, CF A, study day 42, 13.33-13.98 mg/kg prodrugs
Protocol: (§1) Measurement of the Antiparasitic Activity after Administration of a Prodrug to Rats Compounds were dissolved in the appropriate volume of glycerol formal (p.a.) just before application to the animals (dose volume was adjusted to 0.03 mL/kg bodyweight). 5 rats per group were either injected intraperitoneally or subcutaneously. Rats were infested with 30 Dermacentor variabilis nymphs on study days −2, 7, 14, 21, 28, 35 and 30 adult Ctenocephalides fleas on study days −1, 8, 15, 22, 29, 36. […] Percent efficacy was calculated as arithmetic mean parasite numbers as life attached tick numbers and live flea numbers of the respective study group in comparison to parasite counts on a placebo-treated control group. Infestation of groups with less than 75% efficacy on two consecutive counting occasions will terminated for the respective parasite.

Dermacentor variabilis [3] = assay: Antiparasitic activity after administration to rats, tick nymphs; assay type: in vivo; details: for tick efficacy on rats compared with the parent drug also injected subcutaneously: SC; for Efficacy SD42: sc, DV N, study day 42, 13.33-13.98 mg/kg prodrugs
Protocol: as §1

Dermacentor variabilis [4] = assay: Antiparasitic activity after administration to dogs, D. variabilis ticks; assay type: in vivo; details: sc
Protocol: Measurement of the Antiparasitic Activity after Administration of a Prodrug to Dogs
Compounds were dissolved in the appropriate volume of glycerol formal (p.a.) just before application to the animals (dose volume was adjusted to 0.1 ml/kg bodyweight). Dogs were injected intravenously respective subcutaneously (see table 8 for details).
Dogs were infested with ectoparasites according to table on study 1 day prior to counting for fleas, 2 days prior to counting for RS, IR, DV ticks and 3 days prior to counting for AA ticks. For this purpose, dogs were placed in an individually labeled box with grid windows. The ticks were released onto the back of the dogs and were allowed to disperse and move into the hair without disturbance. The dog remained in the box for approximately 120 minutes with the lid closed and the light switched off in the room. For flea infestations, flea containers were opened in the animal's cage and fleas were applied on the dog's back between the shoulders.
Tick counts including removal of I. ricinus, R. sanguineus and D. variabilis were conducted 48(±4) hours after the infestation. Tick counts including removal of A. americanum were conducted 72(±4) hours after the infestation. Flea counts were conducted 24(±4) hours after the infestation.
On each parasite assessment day percent efficacy was calculated as arithmetic mean parasite numbers as life attached and live free tick numbers and live flea numbers of the respective study group in comparison to parasite counts on a placebo non-treated control group.

Compound: N#CC1(N(COC(=O)OCCCOC(=O)/C=C/C(=O)O)C(=O)c2cc(-c3cnn(-c4c(Cl)cc(C(F)(C(F)(F)F)C(F)(F)F)cc4OC(F)(F)F)c3)ccc2Cl)CC1 [Example 2, (12E)-1-(2-Chloro-5-{1-[2-chloro-4-(1,1,1,2,3,3,3-heptafluoropropan-2-yl)-6-(trifluoromethoxy)phenyl]-1H-pyrazol-4-yl}phenyl)-2-(1-cyanocyclopropyl)-1,5,11-trioxo-4,6,10-trioxa-2-azatetradec-12-en-14-oic Acid]
solubility at 24 h [1]: 4 µg/mL (≈ 4.55 µM) | Efficacy SD42 (Ctenocephalides felis): 69% | Efficacy SD42 (Dermacentor variabilis [3]): 82%

Compound: Cn1nc(C(F)(F)C(F)(F)F)c(C(F)(F)F)c1-n1cc(-c2ccc(Cl)c(C(=O)N(COC(=O)OCC(C)(C)C(=O)O)C3(C#N)CC3)c2)cn1 [Example 21, 3-[({[{2-Chloro-5-[2′-methyl-5′-(pentafluoroethyl)-4′-(trifluoromethyl)-2′H-[1,3′-bipyrazol]-4-yl]benzoyl}(1-cyanocyclopropyl)amino]methoxy}carbonyl)oxy]-2,2-dimethylpropanoic Acid]
solubility at 24 h [1]: 136 µg/mL (≈ 187 µM)

Compound: Cn1nc(C(F)(F)C(F)(F)F)c(C(F)(F)F)c1-n1cc(-c2ccc(Cl)c(C(=O)N(COC(=O)OCCOC(=O)CC(C)(C)C(=O)O)C3(C#N)CC3)c2)cn1 [Example 40, 1-{2-Chloro-5-[2′-methyl-5′-(pentafluoroethyl)-4′-(trifluoromethyl)-2′H-[1,3′-bipyrazol]-4-yl]phenyl}-2-(1-cyanocyclopropyl)-12,12-dimethyl-1,5,10-trioxo-4,6,9-trioxa-2-azatridecan-13-oic Acid]
solubility at 24 h [1]: 43 µg/mL (≈ 53.8 µM)

Compound: CC(C)(COC(=O)OCN(C(=O)c1cc(-c2cnn(-c3c(Cl)cc(C(F)(C(F)(F)F)C(F)(F)F)cc3OC(F)(F)F)c2)ccc1Cl)C1(C#N)CC1)C(=O)O [Example 41, 3-[({[(2-Chloro-5-{1-[2-chloro-4-(1,1,1,2,3,3,3-heptafluoropropan-2-yl)-6-(trifluoromethoxy)phenyl]-1H-pyrazol-4-yl}benzoyl)(1-cyanocyclopropyl)amino]methoxy}carbonyl)oxy]-2,2-dimethylpropanoic Acid]
solubility at 24 h [1]: 4 µg/mL (≈ 4.86 µM)

Compound: N#CC1(N(COC(=O)O[C@H]2CCC[C@H]2OC(=O)CCC(=O)O)C(=O)c2cc(-c3cnn(-c4c(Cl)cc(C(F)(C(F)(F)F)C(F)(F)F)cc4OC(F)(F)F)c3)ccc2Cl)CC1 (relative stereo) [Example 7, 4-({(rel 1R,2S)-2-[({[(2-chloro-5-{1-[2-chloro-4-(1,1,1,2,3,3,3-heptafluoropropan-2-yl)-6-(trifluoromethoxy)phenyl]-1H-pyrazol-4-yl}benzoyl)(1-cyanocyclopropyl)amino]methoxy}carbonyl)oxy]cyclopentyl}oxy)-4-oxobutanoic Acid]
solubility at 24 h [1]: 3 µg/mL (≈ 3.31 µM)

Continued, in another order:

solubility at 24 h [1]: 5 µg/mL (≈ 5.78 µM) | % Parent Drug 4 h ([2]; Beagle, dog, 4 h, 39.2 µg/mL): 32% | recovery at 0.17 h, 39 µg/mL ([2]; dog plasma (Beagle), 37° C., 0.17 h, percent area of prodrug at t0): 100% | recovery at 0.5 h, 39 µg/mL ([2]; dog plasma (Beagle), 37° C., 0.5 h): 100% | recovery at 1 h, 39 µg/mL ([2]; dog plasma (Beagle), 37° C., 1 h): 100% | recovery at 1.5 h, 39 µg/mL ([2]; dog plasma (Beagle), 37° C., 1.5 h): 88% | recovery at 2 h, 39 µg/mL ([2]; dog plasma (Beagle), 37° C., 2 h): 82% | recovery at 4 h, 39 µg/mL ([2]; dog plasma (Beagle), 37° C., 4 h): 54%
Compound: N#CC1(N(COC(=O)OCCOC(=O)/C=C/C(=O)O)C(=O)c2cc(-c3cnn(-c4c(Cl)cc(C(F)(C(F)(F)F)C(F)(F)F)cc4OC(F)(F)F)c3)ccc2Cl)CC1 [Example 1, (11E)-1-(2-Chloro-5-{1-[2-chloro-4-(1,1,1,2,3,3,3-heptafluoropropan-2-yl)-6-(trifluoromethoxy)phenyl]-1H-pyrazol-4-yl}phenyl)-2-(1-cyanocyclopropyl)-1,5,10-trioxo-4,6,9-trioxa-2-azatridec-11-en-13-oic Acid]
flea efficacy on rats compared with the parent drug also injected subcutaneously (Ctenocephalides felis): superior | Efficacy SD42 (Ctenocephalides felis): 79% | tick efficacy on rats compared with the parent drug also injected subcutaneously (Dermacentor variabilis [3]): superior | Efficacy SD42 (Dermacentor variabilis [3]): 81% | duration of efficacy against D. variabilis as least sensitive species (Dermacentor variabilis [4]): five | % Efficacy in study month 4 (Dermacentor variabilis [4]; 13.33 mg/kg (=10 parent), DV, study 4, month 4): 96% | % Efficacy in study month 5 (Dermacentor variabilis [4]; 13.33 mg/kg (=10 parent), DV, study 4, month 5): 100% | % Efficacy in study month 6 (Dermacentor variabilis [4]; 13.33 mg/kg (=10 parent), DV, study 4, month 6): 77%

solubility at 24 h [1]: 2 µg/mL (≈ 2.2 µM)
Compound: CC(C)(COC(=O)/C=C/C(=O)O)COC(=O)OCN(C(=O)c1cc(-c2cnn(-c3c(Cl)cc(C(F)(C(F)(F)F)C(F)(F)F)cc3OC(F)(F)F)c2)ccc1Cl)C1(C#N)CC1 [Example 4, (12E)-1-(2-chloro-5-{1-[2-chloro-4-(1,1,1,2,3,3,3-heptafluoropropan-2-yl)-6-(trifluoromethoxy)phenyl]-1H-pyrazol-4-yl}phenyl)-2-(1-cyanocyclopropyl)-8,8-dimethyl-1,5,11-trioxo-4,6,10-trioxa-2-azatetradec-12-en-14-oic Acid]
flea efficacy on rats compared with the parent drug also injected subcutaneously (Ctenocephalides felis): superior | tick efficacy on rats compared with the parent drug also injected subcutaneously (Dermacentor variabilis [3]): superior

solubility at 24 h [1]: 3 µg/mL (≈ 3.53 µM)
Compound: N#CC1(N(COC(=O)O[C@H]2CC[C@H](C(=O)O)CC2)C(=O)c2cc(-c3cnn(-c4c(Cl)cc(C(F)(C(F)(F)F)C(F)(F)F)cc4OC(F)(F)F)c3)ccc2Cl)CC1 [Example 18, Trans-4-[({[(2-chloro-5-{1-[2-chloro-4-(1,1,1,2,3,3,3-heptafluoropropan-2-yl)-6-(trifluoromethoxy)phenyl]-1H-pyrazol-4-yl}benzoyl)(1-cyanocyclopropyl)amino]methoxy}carbonyl)oxy]cyclohexane-1-carboxylic Acid]

solubility at 24 h [1]: 17 µg/mL (≈ 20.7 µM)
Compound: Cn1nc(C(F)(F)C(F)(F)F)c(C(F)(F)F)c1-n1cc(-c2ccc(Cl)c(C(=O)N(COC(=O)O[C@H]3CC[C@H](OC(=O)/C=C/C(=O)O)CC3)C3(C#N)CC3)c2)cn1 [Example 22, Trans (2E)-4-({-4-[({[{2-chloro-5-[2′-methyl-5′-(pentafluoroethyl)-4′-(trifluoromethyl)-2′H-[1,3′-bipyrazol]-4-yl]benzoyl}(1-cyanocyclopropyl)amino]methoxy}carbonyl)oxy]cyclohexyl}oxy)-4-oxobut-2-enoic Acid]
